Reference: paper PMC2010749, “Cytotoxic and clastogenic effects of soluble and insoluble compounds containing hexavalent and trivalent chromium” (British Journal of Cancer, 1981)
Where two headings read alike, the source gives them in different places.

Assays:
[1] = system: CHO Chinese hamster fibroblast line; conditions: 0.1 µg/ml water-soluble Cr(VI) (0.3 µg/ml of salt)
Description: Cell growth and labelling.-The reduction in cell growth, based on the nucleic acid content (DNA + RNA) of treated cultures, and the inhibition of DNA, RNA and protein syn- thesis, based on the incorporation of labelled precursors, were determined, to evaluate the cytotoxic effects of Cr compounds in BHK cell cultures. […] Three to four thousand cells were then examined for each dose level and each time interval, and the mitotic index (the ratio of all mitoses to the total number of cells) and the frequencies of each mitotic phase (the ratios of cells in each phase to total mitoses) were determined. […] Chromium compounds and cell treatments.- The tested compounds of Cr(VI) and Cr(III) and their physico-chemical properties are listed in Table I. In many experiments in which most of them were highly insoluble or only partially soluble (see Tables I, IV, V), Cr compounds were directly suspended in the growth medium used for treatments. In the experiments on the induction of chromosome aberrations and SCE in CHO cells, almost complete solubilization was obtained in N HCI for Cr(III) compounds and 0-5N NaOH for Cr(VI) compounds, after which they were diluted with MEM to the final concentrations specified in Table IX. […]

[2] = system: BHK 21 Syrian hamster fibroblast line; assay: DNA, RNA and protein syntheses in BHK cells, Cr compounds added directly to medium; assay type: cell-based; conditions: 48 h in MEM; 0.5/0.15/0.05 mg/ml (one value for all three)
Description: (§1) Cell growth and labelling.-The reduction in cell growth, based on the nucleic acid content (DNA + RNA) of treated cultures, and the inhibition of DNA, RNA and protein syn- thesis, based on the incorporation of labelled precursors, were determined, to evaluate the cytotoxic effects of Cr compounds in BHK cell cultures. […] Three to four thousand cells were then examined for each dose level and each time interval, and the mitotic index (the ratio of all mitoses to the total number of cells) and the frequencies of each mitotic phase (the ratios of cells in each phase to total mitoses) were determined. […] Chromium compounds and cell treatments.- The tested compounds of Cr(VI) and Cr(III) and their physico-chemical properties are listed in Table I. In many experiments in which most of them were highly insoluble or only partially soluble (see Tables I, IV, V), Cr compounds were directly suspended in the growth medium used for treatments. […] The cytotoxic and clastogenic effects were usually deter- mined just at the end of Cr treatments, but sometimes the treated cells were washed with HBSS and incubated with normal growth medium, so that the effects of Cr were deter- mined at different times after the end of treatment (see Fig. 3 and Table VII).

[3] = system: BHK 21 Syrian hamster fibroblast line; assay: Cell growth of BHK cultures (DNA + RNA content), Cr compounds added directly to medium; assay type: cell-based; conditions: 48 h in MEM; 0.5/0.15/0.05 mg/ml (one value for all three)
Description: (§2) Cell growth and labelling.-The reduction in cell growth, based on the nucleic acid content (DNA + RNA) of treated cultures, and the inhibition of DNA, RNA and protein syn- thesis, based on the incorporation of labelled precursors, were determined, to evaluate the cytotoxic effects of Cr compounds in BHK cell cultures. […] Three to four thousand cells were then examined for each dose level and each time interval, and the mitotic index (the ratio of all mitoses to the total number of cells) and the frequencies of each mitotic phase (the ratios of cells in each phase to total mitoses) were determined. […] Chromium compounds and cell treatments.- The tested compounds of Cr(VI) and Cr(III) and their physico-chemical properties are listed in Table I. In many experiments in which most of them were highly insoluble or only partially soluble (see Tables I, IV, V), Cr compounds were directly suspended in the growth medium used for treatments. In the experiments on the induction of chromosome aberrations and SCE in CHO cells, almost complete solubilization was obtained in N HCI for Cr(III) compounds and 0-5N NaOH for Cr(VI) compounds, after which they were diluted with MEM to the final concentrations specified in Table IX. […] The cytotoxic and clastogenic effects were usually deter- mined just at the end of Cr treatments, but sometimes the treated cells were washed with HBSS and incubated with normal growth medium, so that the effects of Cr were deter- mined at different times after the end of treatment (see Fig. 3 and Table VII).

[4] = Solubility of chromium compounds (Table I)
Description: as §2

[5] = system: CHO Chinese hamster fibroblast line; assay: Cell growth of CHO cultures (DNA + RNA content); assay type: cell-based; conditions: 32 h in MEM; 0.3 µg/ml
Description: as §1

[6] = system: BHK 21 Syrian hamster fibroblast line; assay: DNA, RNA and protein syntheses in BHK monolayers exposed to filtered medium preincubated with Cr compounds; assay type: cell-based; conditions: cells exposed 24 h;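 note: DNA, RNA and protein synthesis in BHK cultures assessed by incorporation of labelled precursors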
Description: as §1

[7] = system: HEp-2 human epithelial-like line; conditions: 2 h exposure to medium preincubated 2 days with 0.5 mg/ml in presence of BHK cells
Description: as §1

[8] = system: BHK 21 Syrian hamster fibroblast line; conditions: range in 4 experiments
Description: as §1

[9] = preincubated 48 h with 0.05 mg/ml
[10] = preincubated 48 h with 0.15 mg/ml
[11] = preincubated 48 h with 0.5 mg/ml

SMILES: [K+].[K+].[O]=[Cr](=[O])([O-])[O][Cr](=[O])(=[O])[O-] [Potassium dichromate]
- Mean number of chromosome aberrations relative to control [1]: 2-3 times the control values
- DNA synthesis [2]: 0 % of controls
- Protein synthesis [2]: 0 % of controls
- RNA synthesis [2]: 0 % of controls
- Cell growth [3]: 0 % of controls
- Solubility in water [4]: High
- Cell growth [5]: 83 % control
- DNA synthesis, preinc. in MEM [6, 9]: 24 % of controls
- DNA synthesis, preinc. in MEM+BHK [6, 9]: 35 % of controls
- Protein synthesis, preinc. in MEM [6, 9]: 100 % of controls
- Protein synthesis, preinc. in MEM+BHK [6, 9]: 100 % of controls
- RNA synthesis, preinc. in MEM [6, 9]: 90 % of controls
- RNA synthesis, preinc. in MEM+BHK [6, 9]: 100 % of controls
- DNA synthesis, preinc. in MEM [6, 10]: 4 % of controls
- DNA synthesis, preinc. in MEM+BHK [6, 10]: 16 % of controls
- Protein synthesis, preinc. in MEM [6, 10]: 68 % of controls
- Protein synthesis, preinc. in MEM+BHK [6, 10]: 100 % of controls
- RNA synthesis, preinc. in MEM [6, 10]: 42 % of controls
- RNA synthesis, preinc. in MEM+BHK [6, 10]: 64 % of controls
- DNA synthesis, preinc. in MEM [6, 11]: 4 % of controls
- DNA synthesis, preinc. in MEM+BHK [6, 11]: 7 % of controls
- Protein synthesis, preinc. in MEM [6, 11]: 52 % of controls
- Protein synthesis, preinc. in MEM+BHK [6, 11]: 69 % of controls
- RNA synthesis, preinc. in MEM [6, 11]: 39 % of controls
- RNA synthesis, preinc. in MEM+BHK [6, 11]: 49 % of controls
- Mitotic block (% increase of abnormal metaphases 2-4 h after treatment) [7]: +++ (+ + + (> 100%))
- Mitotic inhibition, early (% reduction of normal prophases at the end of treatment) [7]: +++ (+ + + (> 70%))
- Mitotic inhibition, late (% reduction of normal prophases 24 h after treatment) [7]: +++ (+ + + (> 70%))
- Caryological alterations ([7]; grades not defined): ~+
- Length of treatment giving 50% inhibition of RNA synthesis ([8]; K2Cr2O7 10 µg/ml in HBSS): 1 to 2 h
- Length of treatment giving 50% inhibition of protein synthesis ([8]; K2Cr2O7 10 µg/ml in HBSS): 3 to 5 h
- Length of treatment giving > 90% inhibition of DNA synthesis ([8]; K2Cr2O7 10 µg/ml in HBSS): 2 to 3 h
- Length of treatment giving > 90% inhibition of RNA synthesis ([8]; K2Cr2O7 10 µg/ml in HBSS): 6 to 7 h
- Length of treatment giving > 90% inhibition of protein synthesis ([8]; K2Cr2O7 10 µg/ml in HBSS): 8 to 10 h
- Length of treatment giving 50% inhibition of DNA synthesis ([8]; K2Cr2O7 10 µg/ml in MEM): 0.5 to 1.0 h
- Length of treatment giving 50% inhibition of RNA synthesis ([8]; K2Cr2O7 10 µg/ml in MEM): 2 to 4 h
- Length of treatment giving 50% inhibition of protein synthesis ([8]; K2Cr2O7 10 µg/ml in MEM): 5 to 9 h
- Length of treatment giving > 90% inhibition of DNA synthesis ([8]; K2Cr2O7 10 µg/ml in MEM): 2 to 3 h
- Length of treatment giving > 90% inhibition of RNA synthesis ([8]; K2Cr2O7 10 µg/ml in MEM): > 10 h
- Length of treatment giving > 90% inhibition of protein synthesis ([8]; K2Cr2O7 10 µg/ml in MEM): > 10 h
- Length of treatment giving 50% inhibition of DNA synthesis ([8]; K2Cr2O7 100 µg/ml in MEM): 0 to 25 h
- Length of treatment giving 50% inhibition of protein synthesis ([8]; K2Cr2O7 100 µg/ml in MEM): 1 to 3 h
- Length of treatment giving > 90% inhibition of DNA synthesis ([8]; K2Cr2O7 100 µg/ml in MEM): 0 to 75 h
- Length of treatment giving > 90% inhibition of RNA synthesis ([8]; K2Cr2O7 100 µg/ml in MEM): 5 to 7 h
- Length of treatment giving > 90% inhibition of protein synthesis ([8]; K2Cr2O7 100 µg/ml in MEM): 6 to 10 h
